This assay relates to PC12 cells. The assay is described as follows: PC12 bioassay of NGF released from fiber. It is filed as cell-based. The settings on record: for time period of significant cell differentiation: supernatant with released NGF. An excerpt:
Nerve growth factor (NGF) was used as the model protein to investigate if incorporation of protein into the fibre compromises its bioactivity. The bioactivity of the released NGF was confirmed by its ability to differentiate PC12 cells, and in a dose-dependent manner. (FIG. 2C) At the increasing loading concentrations of NGF indicated, significant cell differentiation could be observed for time periods of up to 3 d, 5 d and 7 d, respectively. In all cases, the minimum concentration of NGF required to induce neurite outgrowth appeared to be in the region of 0.5 ng/mL, which agrees well with the literature. See, Physiological Reviews 60, 1284-1335 (1980).
Encapsulation of recombinant human β-NGF (MW 13,200, R&D Systems) was performed in the same way as described for BSA. Ring-spooled fibers were incubated in RPMI media over a period of 1 week, during which supernatants were collected for the PC12 bioassay and NGF ELISA (DuoSet ELISA Development System for human β-NGF, R&D Systems).

Where only a bound is given, the exact number is not on record here.

Take “NGF: Recombinant human β-NGF (MW 13,200, R&D Systems), model protein encapsulated in and released from the fiber”: the “minimum concentration of NGF required to induce neurite outgrowth” value (NGF released from fiber, PC12 cells) was ~0.5 ng/mL. Also, the “time period of significant cell differentiation” value (loading concentration 66 ng/mL) is “up to 3 d”, the “time period of significant cell differentiation” value (loading concentration 86 ng/mL) is ≤ 5 days and the “time period of significant cell differentiation” value (loading concentration 112 ng/mL) was ≤ 7 days.

The values are drawn from patent publication US20070020244A1, “Fiber constructs and process of fiber fabrication” (The Johns Hopkins University, priority 2005, published 2007).
